# US20040102606A1, “Histone H2A -derived peptides useful in gene delivery” (priority 2003, published 2004)
# Key:
# COS-7 cells [1] = experiment: X-gal staining of transfected cells; assay type: cell-based, African green monkey
# Source text: The difference between one of the effective peptides (amino acids 1-36) and the peptide composed of the first 25 amino acids is the inclusion of an α-helical motif located between amino acids 27-35.
# COS-7 cells [2] = experiment: Transfection assay (β-galactosidase reporter plasmid pCMVβ complexed with H2A-derived peptide); assay type: cell-based, African green monkey; settings: for transfection activity (DNA delivery) at the 17-mer's own optimal concentration: much higher molar ratio than 36-mer; for transfection activity (β-galactosidase production): peptide at equimolar ratio to peak conditions of peptide 1 (36-mer), also 2× and ½× molar, FIG. 1
# Source text: The transfection assay is based on an in vitro assay previously described by J. H. Felgner et al. (Feigner et al., Proc. Natl. Acad. Sci., USA, 84:7413-7417, […]) with the following modifications: COS-7 (African green monkey SV40-transformed kidney cells, American Type Culture Collection, Rockville, Md.) were maintained in Dulbecco's modified eagle's medium (Biowhittaker, Walkersville, Md.) supplemented with 10% heat inactivated fetal bovine serum (Gemini Bio-products Inc., Calabras, Calif.), […] glutamine (Gemini Bio-products Inc., Calabras, Calif.), and 100U Penicillin-100 μg Streptomycin (Gemini Bio-products Inc., Calabras, Calif.). Other cells useful for transfection are 3T3, CHO-K1, HEPG2 and the like cell lines. The cells were harvested with 0.05% Trypsin-0.53 mM EDTA4Na (Life Technologies, Gaithersburg, Md.), pelleted, resuspended in their usual culture medium, diluted in 0.85% NaCl (Sigma, St. Louis, Mo.), and counted in a Coulter Z1® apparatus (Coulter Corporation, Miami, Fla.). COS-7 cells were plated in 96-well flat bottom tissue culture treated polystyrene plates (Corning Inc., Corning, N.Y.) at a density of […] cells per well and grown overnight in a humidified incubator at 37° C. in the presence of 4% CO2. Culture medium was aspirated from the overnight cultures of COS-7 cells, and the cells were overlaid with 75 μl/well of the binary DNA-histone H2A-derived peptide complex, or the corresponding controls. Four hours after transfection, 37.5 μl of Opti-MEM®1, a Tris-Acetate-based (Life Technologies, Gaithersburg, Md.) containing 30% heat inactivated fetal bovine serum (Gemini Bio-products Inc., Celebres, Calif.) was added to each well. Twenty-four hours post-transfection […] of Opti-MEM®1 containing 10% heat inactivated fetal bovine serum (Gemini Bio-products Inc., Celebres, Calif.) was added to each well Forty-eight hours post-transfection, all of the medium in each well was removed. Fifty μl of lysis buffer (0.1% Triton X-100, […] Tris pH 8.0) was added to each well. The plates were then frozen at −70° C. and thawed once. Fifty μl of phosphate-buffered saline (PBS) pH 7.4 was added to each well except for the last column The last column was reserved for a β-galactosidase standard curve. […] In the presence of β-galactosidase, D-galactose is released from CPRG, yielding chlorophenol red; the red reaction product was used to quantitate the amount of β-galactosidase produced. […] The plates were read in a Thermomax plate reader (Molecular Devices Incorporated, Sunnyvale, Calif.) at 575 nm. The optical density values obtained in test wells were then compared to those in the column containing the β-galactosidase standard and the result was expressed as the quantity of β-galactosidase produced per well. […]
# Circular dichroism = assay type: physicochemical; settings: 70 μM in 120 mM Tris acetate pH 8; 200-260 nm
# Description: Circular dichroism experiments were performed using a Circular Dichroism Spectrometer (model 62DS) at wavelengths ranging from 200-260 nm In all cases, three readings were taken of a 300 μl sample of 70 μM histone H2A or 70 μM histone H2A-derived peptide in 120 mM Tris acetate pH 8. The average reading for every wavelength tested is plotted as a function of degrees of ellipticity.
# Circular dichroism of peptide was performed on four samples: the full length histone H2A molecule, peptide 1 (36-mer), peptide P1 (17-mer) and peptide 12.
# COS7 cells = settings: polymers in equimolar ratios to their representation in histone H2A; cited from earlier work
Molecule,transfection activity (β-galactosidase production) (COS-7 cells [2]),transfection (β-galactosidase reporter plasmid) (COS7 cells),further results
"P1: 17-mer that represents amino acids 18-34 of the histone H2A molecule (RSSRAGLQFPVGRVHRL; UniProt P0C0S8 18-34, looked up, fragment) [Peptide P1]",only background activity,–,"COS-7 cells transfected (X-gal staining) (COS-7 cells [1]): less than 1%; transfection activity (DNA delivery) at the 17-mer's own optimal concentration (COS-7 cells [2]; FIG. 2): effective in DNA transfection and delivery; transfection activity (DNA delivery) at the 17-mer's own optimal concentration (COS-7 cells [2]; FIG. 2, listed as 17-mer): active in DNA delivery; circular dichroism, α-helical structure (minima at 208 and 222 nm) (Circular dichroism): some degree of minima at around 208"
KTRSSRAGLQFPVGRVHRIIRK [Peptide 5R],significant activity,–,–
NCCCNCCCCNCCCN [spermine],–,ineffective,–
NCCCCNCCCN [spermidine],–,ineffective,–
